# Laboratory results from the supplement of paper PMC10307832.
# Legend:
# Test in all cases: relative viability (nuclei count vs DMSO), 5 days (fraction); higher = more cells survive
# [1] = compound: COc1nc(N)nc2c1ncn2[C@@H]1O[C@H](CO)[C@@H](O)[C@@H]1O [Nelarabine] + Cc1nc(NC(=O)N2CCC[C@H]2C(N)=O)sc1-c1ccnc(C(C)(C)C(F)(F)F)c1 [Alpelisib] (partner 2 µM)
# Method in brief: (§1)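 Relative viability was taken as the ratio of nuclei in treated wells to nuclei in vehicle wells. Lung cancer cell lines in 1536-well plates received compounds by pin tool one day after seeding, either one drug alone or a fixed anchor-drug dose plus five library-drug doses (not always all listed) in √10 steps. Nuclei were counted on 4× images after 5 days of treatment, and values are medians of duplicate plates.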
# [2] = compound: C=CCn1c(=O)c2cnc(Nc3ccc(N4CCN(C)CC4)cc3)nc2n1-c1cccc(C(C)(C)O)n1 [Adavosertib] + NC(=O)Nc1cc(-c2cccc(F)c2)sc1C(=O)N[C@H]1CCCNC1 [AZD7762] (partner 0.2 µM)
# Method in brief: as §1
# [3] = compound: C=CCn1c(=O)c2cnc(Nc3ccc(N4CCN(C)CC4)cc3)nc2n1-c1cccc(C(C)(C)O)n1 [Adavosertib] + COc1cccc2cc(-c3nc([C@H]4CC[C@H](C(=O)O)CC4)n4ncnc(N)c34)[nH]c12 [OSI-027] (partner 0.5 µM)
# Method in brief: as §1
# [4] = compound: C=CCn1c(=O)c2cnc(Nc3ccc(N4CCN(C)CC4)cc3)nc2n1-c1cccc(C(C)(C)O)n1 [Adavosertib] + Cc1cc(Nc2cc(N3CCN(C)CC3)nc(Sc3ccc(NC(=O)C4CC4)cc3)n2)n[nH]1 [Tozasertib] (partner 0.1 µM)
# Method in brief: as §1
Cell Line,relative viability ([1]; first compound 0.01 µM),relative viability ([1]; first compound 0.03162 µM),relative viability ([1]; first compound 0.1 µM),relative viability ([1]; first compound 0.3162 µM),relative viability ([1]; first compound 1 µM),relative viability ([2]; first compound 0.01 µM),relative viability ([2]; first compound 0.03162 µM),relative viability ([2]; first compound 0.1 µM),relative viability ([2]; first compound 0.3162 µM),relative viability ([3]; first compound 0.01 µM),relative viability ([3]; first compound 0.03162 µM),relative viability ([3]; first compound 0.1 µM),relative viability ([3]; first compound 0.3162 µM),relative viability ([4]; first compound 0.01 µM),relative viability ([4]; first compound 0.03162 µM),relative viability ([4]; first compound 0.1 µM),relative viability ([4]; first compound 0.3162 µM)
LCLC-103H,1.01,0.989,0.985,0.936,0.956,0.786,0.783,0.775,0.408,0.458,0.441,0.428,0.417,0.5,0.501,0.572,0.451
NCI-H2347,1.01,1.13,1.14,1.04,1.14,0.791,0.674,0.476,0.329,0.515,0.414,0.473,0.298,0.476,0.674,0.718,0.511
NCI-H3122,0.898,0.569,–,0.881,0.761,0.998,0.829,0.963,0.511,0.972,0.914,1.07,1.06,0.414,0.383,0.462,0.469
NCI-H1793,0.748,0.736,0.625,0.68,0.693,0.407,0.2,0.14,0.179,0.282,0.289,0.26,0.277,0.352,0.386,0.4,0.253
NCI-H358,0.906,0.839,0.62,0.845,0.857,0.486,0.488,0.329,0.234,0.786,0.913,0.637,0.326,0.104,0.0953,0.102,0.0852
HOP-62,1.12,1.03,0.942,0.926,1.07,0.697,0.382,0.364,0.116,0.92,0.907,0.852,0.85,0.356,0.409,0.414,0.329
NCI-H1944,0.817,0.78,0.828,0.814,0.79,0.511,0.31,0.23,0.164,0.378,0.429,0.394,0.402,0.227,0.241,0.23,0.269
NCI-H838,1.29,0.769,1.07,1.11,1.02,0.986,0.831,0.722,0.626,0.425,0.346,0.391,0.388,0.237,0.268,0.328,0.283
ABC-1,1.06,1.3,1.24,0.937,1.08,0.87,0.706,0.623,0.802,0.411,0.406,0.405,0.419,0.208,0.161,0.166,0.145
